Measurements: patent US20200345021A1, “METHOD AND SYSTEM FOR ENHANCING THE EFFICACY USING IONIZED/A[…] PEROXIDE IN REDUCING MICROBIAL POPULATIONS, METHOD OF USE THEREOF” (priority 2019, published 2020)
“And” between values parts separate entries of the source, which are not always exact repeats. Equal values may be shown once. Read-outs that look alike come from different tables or passages of the source. Marks after values point to notes of the source that are not given here.

Columns and labels:
Salmonella Typhimurium = assay type: cell-based
Description: (§1) To minimize the risk of possible bacteria becoming airborne during treatments, attenuated and non-pathogenic bacteria were used in the study. Two strains of non-pathogenic S. Typhimurium (ATCC 53647 and 53648) and three strains of L. innocua (ATCC 33090, ATCC 51742 and ATCC BAA680) were obtained from American Type Culture Collection (ATCC) (Manassas, Va., USA). Further studies used E. coli O157:H7 (ATCC 700728), S. Typhimurium (ATCC 53647 and 53648), and L. innocua (ATCC 33090) obtained from American Type Culture Collection (ATCC) (Manassas, Va., USA) and maintained as a part of the culture collection at the USDA Eastern Regional Research Center (Wyndmoor, Pa. USA). The bacteria were made to be resistant to nalidixic acid by successive growth in Trypic Soy Broth (TSB) (Difco, Sparks, Md., USA) with increasing nalidixic acid concentrations. All strains were stored at −80° C. in 1 mL of TSB containing 10% glycerol. Working cultures of S. Typhimurium and L. innocua were maintained in 9 mL TSB (supplemented with 100 μg/mL nalidixic acid for S. Typhimurium) at 4° C. after incubating at 37° C. for […], respectively, and sub-cultured each time.
(§2) Each strain of S. Typhimurium and L. innocua was cultured in 9 mL TSB (supplemented with 100 μg/mL nalidixic acid for S. Typhimurium) and incubated at 37° C. for 40 h and 48 h, respectively, harvested by centrifugation at 4000×g for 10 min at 4° C., and resuspended in 9 mL sterile Buffered Peptone Water (BPW; Difco). The pellets were resuspended in BPW to form cell suspensions with a final concentration of 108˜10^9 CFU/mL. Subsequently, suspended pellets of two strains of Salmonella and three strains of L. innocua were combined to obtain two separate culture cocktails.
(§3) Grape tomatoes, granny smith apples, romaine lettuce and cantaloupes were purchased from local markets (Philadelphia, Pa., USA) and kept at 10° C. prior to use. Fruits and vegetables were removed from 10° C. refrigeration and equilibrated to ambient temperature before being inoculated. Romaine lettuce was divided into upper green leaf and midrib tissues. Six tomatoes, six pieces (2×2 cm) of apple skins, five pieces (3×3 cm) of Romaine lettuce upper leaves, five pieces (3 cm length) of Romaine lettuce midrib area and six pieces (2×2 cm) of cantaloupe rinds with 2×3 mm thickness of flesh were used for each treatment per replicate. Bach piece w as spot inoculated with 10 μL of Salmonella and L. innocua by depositing droplets with a micropipette. The inoculated samples were dried in a bio-hood for 1 h (for tomato surfaces, romaine lettuce, apple skins and cantaloupe rinds) or 2 h (for tomato stem scars) at ambient temperature.
(§4) Produce items were placed onto a sterile test tube rack with the inoculated area facing up and the rack with produce pieces were placed inside of a treatment chamber (12×12×24 inch).
(§5) Therefore, each kind of produce was treated with and without cold plasma ionized under the same optimized conditions.
(§6) After each treatment, the tomato stem scars and surfaces with the inoculated bacteria were removed using a pair of sterile scissors. Each type of produce item from the same treatment was combined (total weight: 1.51±0.29 g for tomato stem scars; 2.07±0.15 g for tomato surfaces; 6.37±0.92 g for apple skins; 1.62±0.34 g for Romaine lettuce upper leaves: 13.30±2.97 g for Romaine lettuce midrib tissues: 9.58±1.26 g for cantaloupe rinds) and transferred into an 80 mL filtered stomacher bag. After addition of 30 mL BBL buffered peptone water into the bag, the sample in the bag was homogenized using a mini blender (Mini Mix CC, Interscience laboratories Inc., Woburn, Mass., USA) for 2 min at a setting of 4. […] Tryptic Soy Agar with 200 μg/mL pyruvate acid and 100 μg/mL nalidixic acid (TSA-PN) and PALCAM Agars (Difco) were used for the enumeration of S. Typhimurium and L. innocua, respectively.

Listeria innocua = test: Effect of cold plasma activation on efficacy of ionized/aerosolized H2O2 against Listeria innocua (Study 2); assay type: cell-based
Description: as §1, §2, §3, §4, §5, §6

[1] = Cantaloupe rind, 30 s spray time + 30 min dwell
[2] = Romaine lettuce-midrib, 30 s spray time + 30 min dwell
[3] = Romaine lettuce-upper leaf, 30 s spray time + 30 min dwell
[4] = Tomato-stem scar, three cycles of 20 s spray time plus 20 min dwell time
[5] = Tomato-surface, 8 s spray time + 30 min dwell

Compound: OO [H2O2 − cold plasma, hydrogen peroxide]
- Populations of Salmonella Typhimurium (Salmonella Typhimurium; [1]): 4.83 ± 0.36^b log CFU/piece
- Reductions of Salmonella Typhimurium (Salmonella Typhimurium; [1]): 1.54 ± 0.36^y log CFU/piece
- Reductions of Salmonella Typhimurium (Salmonella Typhimurium; Granny Smith apples, 8 s spray time + 30 min dwell): 2.08 ± 0.17^y log CFU/piece
- Populations of Salmonella Typhimurium (Salmonella Typhimurium; Granny Smith apples, 8 s spray time + 30 min dwell, ND: not detectable (detection limit 0.70 log CFU/piece)): 3.77 ± 0.17^b log CFU/piece
- Reductions of Salmonella Typhimurium (Salmonella Typhimurium; Granny Smith apples, 8 s spray time + 30 min dwell, listed as hydrogen peroxide (H2O2) aerosols without cold plasma): 2.08 log CFU/piece
- Populations of Salmonella Typhimurium (Salmonella Typhimurium; [2]): 4.16 ± 0.28^b log CFU/piece
- Reductions of Salmonella Typhimurium (Salmonella Typhimurium; [2]): 1.78 ± 0.28^y log CFU/piece
- Populations of Salmonella Typhimurium (Salmonella Typhimurium; [3]): 4.70 ± 0.23^b log CFU/piece
- Reductions of Salmonella Typhimurium (Salmonella Typhimurium; [3]): 1.72 ± 0.23^y log CFU/piece
- Populations of Salmonella Typhimurium (Salmonella Typhimurium; [4]): 4.40 ± 0.28^b log CFU/piece
- Reductions of Salmonella Typhimurium (Salmonella Typhimurium; [4]): 1.54 ± 0.28^y log CFU/piece
- Reductions of Salmonella Typhimurium (Salmonella Typhimurium; [5]): 3.17 ± 0.33^y log CFU/piece
- Populations of Salmonella Typhimurium (Salmonella Typhimurium; Tomato-surface, 8 s spray time + 30 min dwell, ND: not detectable (detection limit 0.70 log CFU/piece)): 2.46 ± 0.33^b log CFU/piece
- Reductions of Salmonella Typhimurium (Salmonella Typhimurium; Tomato-surface, 8 s spray time + 30 min dwell, listed as hydrogen peroxide (H2O2) aerosols without cold plasma): 3.17 log CFU/piece
- Reductions of Salmonella, range over the fresh produce items (Salmonella Typhimurium; all tested produce items and surfaces, optimized conditions, listed as hydrogen peroxide (H2O2) aerosols without cold plasma): 1.54-3.17 log CFU/piece and 1.53-3.17 log CFU/piece
- Reductions of Listeria innocua (Listeria innocua; [1]): 1.57 ± 0.37^y log CFU/piece
- Populations of Listeria innocua (Listeria innocua; Cantaloupe rind, 30 s spray time + 30 min dwell, ND1: not detectable (detection limit 0.70 log CFU/piece)): 3.88 ± 0.37^b log CFU/piece
- Reductions of Listeria innocua (Listeria innocua; Granny Smith apple, 8 s spray time + 30 min dwell): 2.69 ± 0.20^y log CFU/piece
- Populations of Listeria innocua (Listeria innocua; Granny Smith apple, 8 s spray time + 30 min dwell, ND1: not detectable (detection limit 0.70 log CFU/piece)): 2.90 ± 0.20^b log CFU/piece
- Reductions of Listeria innocua (Listeria innocua; [2]): 3.77 ± 0.35^y log CFU/piece
- Populations of Listeria innocua (Listeria innocua; Romaine lettuce-midrib, 30 s spray time + 30 min dwell, ND2: not detectable (detection limit 0.76 log CFU/piece)): 1.82 ± 0.35^b log CFU/piece
- Reductions of Listeria innocua (Listeria innocua; Romaine lettuce-midrib, 30 s spray time + 30 min dwell, listed as hydrogen peroxide (H2O2) aerosols without cold plasma): 3.77 log CFU/piece
- Reductions of Listeria innocua (Listeria innocua; [3]): 2.77 ± 0.34^y log CFU/piece
- Populations of Listeria innocua (Listeria innocua; Romaine lettuce-upper leaf, 30 s spray time + 30 min dwell, ND2: not detectable (detection limit 0.76 log CFU/piece)): 2.80 ± 0.34^b log CFU/piece
- Populations of Listeria innocua (Listeria innocua; [4]): 4.21 ± 0.60^b log CFU/piece
- Reductions of Listeria innocua (Listeria innocua; [4]): 1.35 ± 0.60^y log CFU/piece
- Reductions of Listeria innocua (Listeria innocua; Tomato-stem scar, three cycles of 20 s spray time plus 20 min dwell time, listed as hydrogen peroxide (H2O2) aerosols without cold plasma): 1.35 log CFU/piece
- Reductions of Listeria innocua (Listeria innocua; [5]): 2.74 ± 0.21^y log CFU/piece
- Populations of Listeria innocua (Listeria innocua; Tomato-surface, 8 s spray time + 30 min dwell, ND1: not detectable (detection limit 0.70 log CFU/piece)): 2.77 ± 0.21^b log CFU/piece
